Measurements from paper PMC6361752, “Construction of a Quantitative Structure Activity Relationship (QSAR) Model to Predict the Absorption of Cephalosporins in Zebrafish for Toxicity Study” (Frontiers in Pharmacology, 2019).

Test system: Zebrafish wild-type (WT) embryos
Test: Absorption (internal concentration) of cephalosporins in zebrafish embryos by LC-MS/MS
Conditions: 6 hpf-3 dpf; for k-value (slope of the dose-internal concentration linear regression): zebrafish embryos, 0.28, 1.0 and 2.0 mM, higher k = more readily absorbed
Description: Zebrafish (Danio rerio) were fed at the Institute of Medicinal Biotechnology, Beijing Union Medical College, Beijing, China. […] Zebrafish wild-type (WT) embryos (n = 30) at 6 h post-fertilization (6 hpf) were used. After immersing the embryos in 2 mL of each drug solution (Drugs were dissolved in breeding water), they were incubated in a 20 mm dish for 3 days. […] The zebrafish bodies were collected at 3 days post-fertilization (dpf). The blank controls were zebrafish WT embryos (n = 30) that were incubated in breeding water.
Using a cell strainer (100 μm, BD-Falcon, United States), zebrafish bodies (30 in each dish) were washed five times with deionized water. Zebrafish bodies were triturated in 100 μL of deionized water, and then they were homogenized for 1 min. Zebrafish homogenate (50 μL) and internal standard (IS) working solution (10 μL) were individually transferred into a 1.5-mL microcentrifuge tube. Then, 200 μL of 1% formic acid-methanol solution was added into the tube. The samples were vortexed for 20 s. To precipitate proteins, the samples were centrifuged at 10,800 g for 10 min. The resultant supernatant (10 μL) was injected into LC-MS/MS for analysis.
The LC-MS/MS technique was performed by combining a 20A LC (Shimadzu, Kyoto, Japan) and a 6500 Q-Trap mass spectrometer (AB Sciex, Foster City, CA, United States), which was equipped with an electrospray ionization (ESI) source. Moreover, LC separations were performed on a reversed-phase ACE C18 column (5 cm × 2.1 mm ID, 3 μm particle size, Advanced Chromatography Technologies, Aberdeen, United Kingdom), which was attached to a corresponding guard column (1 cm × 2.1 mm ID, 3 μm particle size; Advanced Chromatography Technologies, United Kingdom). The mobile phase comprised of 5 mM ammonium formate (pH = 3.5) (solvent A) and acetonitrile (solvent B). The composition of the gradient was as follows: 2% solvent B for the first 0.1 min; 3.5 min, 90% solvent B; 6.0 min, 90% solvent B; 6.1 min, 2% solvent B; and 10 min, 2% solvent B. Mass spectrometric analysis was performed in a positive mode. Ion-spray voltage was set at 5000 V, and source temperature was kept fixed at 500°C. Curtain gas, gas 1, and gas 2 were 25, 40, and 40 psi, respectively. Multiple reaction monitoring (MRM) scan was used for the quantification of 19 analytes. In this scan, we determined the most intense product ion (PI) of each analyte. The entrance potential (EP) of all analytes was 10 eV. For each ion transition, dwell time and pause time were set to 30 and 5 ms, respectively. The Analyst 1.6.2 software (AB Sciex, Foster City, CA, United States) was used to perform data acquisition and analysis.
Dose-internal concentration curves were constructed by linear regression analysis. The slope of each linear regression was defined as k-value for each drug. […] The entire data set was split into the training set and test set by a random index, which was operated by DS4.0 software. The training set percentage was set at 80.
Using the aforementioned method, we analyzed the internal concentrations of cephalosporins in zebrafish. […] The calibration samples and administration samples were processed in a timely manner. The internal concentration of each cephalosporin in the zebrafish was calculated by using the corresponding calibration curve (Table 2). […] Dose-internal concentration curves were constructed by linear regression analysis (Figure 1). For each drug, the slope of each linear regression was defined as k-value. This parameter was used to evaluate the absorption capacity of each drug.

[1] = zebrafish embryos exposed to 0.28 mM drug solution
[2] = zebrafish embryos exposed to 1 mM drug solution
[3] = zebrafish embryos exposed to 2 mM drug solution

Row | Structure (SMILES) | Internal concentration [1] [mM × 10^-5] | Internal concentration [2] [mM × 10^-5] | Internal concentration [3] [mM × 10^-5] | k-value (slope of the dose-internal concentration linear regression) | other results
1 | N[C@@H](C(=O)N[C@@H]1C(=O)N2C(C(=O)O)=C(Cl)CS[C@H]12)c1ccccc1 [Cefaclor] | 1.01 | 3.43 | 9.49 | 5.0027 | k-value (slope of the dose-internal concentration linear regression) (listed as cefaclor): > 5
2 | CC1=C(C(=O)O)N2C(=O)[C@@H](NC(=O)[C@H](N)c3ccc(O)cc3)[C@H]2SC1 [Cefadroxil] | 1.32 | 7.07 | 12.55 | 6.4617 | k-value (slope of the dose-internal concentration linear regression) (listed as cefadroxil): > 5
3 | CC1=C(C(=O)O)N2C(=O)[C@@H](NC(=O)[C@H](N)c3ccccc3)[C@H]2SC1 [Cefalexin] | 1.01 | 5.48 | 16.83 | 9.3280 | –
4 | CC(=O)OCC1=C(C(=O)O)N2C(=O)[C@@H](NC(=O)CSC(=NC(C)C)NC(C)C)[C@H]2SC1 [Cefathiamidine] | 0.49 | 1.29 | 1.63 | 0.6439 | k-value (slope of the dose-internal concentration linear regression) (listed as cefathiamidine): < 5
5 | Cc1nnc(SCC2=C(C(=O)O)N3C(=O)[C@@H](NC(=O)Cn4cnnn4)[C@H]3SC2)s1 [Cefazolin] | 8.56 | 13.95 | 14.19 | 3.0851 | k-value (slope of the dose-internal concentration linear regression) (listed as cefazolin): < 5
6 | CO/N=C(\C(=O)N[C@@H]1C(=O)N2C(C(=O)O)=C(CSc3nnnn3C)CS[C@H]12)c1csc(N)n1 [Cefmenoxime] | 0.00 | 0.71 | 1.14 | 0.6493 | k-value (slope of the dose-internal concentration linear regression) (listed as cefmenoxime): < 5
7 | CO/N=C(\C(=O)N[C@@H]1C(=O)N2C(C(=O)O)=C(CSc3nc(C)c(CC(=O)O)s3)CS[C@H]12)c1csc(N)n1 [Cefodizime] | 0.51 | 0.94 | 3.47 | 1.7709 | k-value (slope of the dose-internal concentration linear regression) (listed as cefodizime): < 5
8 | CCN1CCN(C(=O)N[C@@H](C(=O)N[C@@H]2C(=O)N3C(C(=O)O)=C(CSc4nnnn4C)CS[C@H]23)c2ccc(O)cc2)C(=O)C1=O [Cefoperazone] | 1.30 | 5.75 | 12.47 | 6.5063 | k-value (slope of the dose-internal concentration linear regression) (listed as cefoperazone): > 5
9 | CO/N=C(\C(=O)N[C@@H]1C(=O)N2C(C(=O)O)=C(COC(C)=O)CS[C@H]12)c1csc(N)n1 [Cefotaxime] | 0.27 | 0.75 | 0.82 | – | –
10 | CN(C)CCn1nnnc1SCC1=C(C(=O)O)N2C(=O)[C@@H](NC(=O)Cc3csc(N)n3)[C@H]2SC1 [Cefotiam] | 0.25 | 1.31 | 3.73 | 2.0488 | k-value (slope of the dose-internal concentration linear regression) (listed as cefotiam): < 5
11 | CO[C@@]1(NC(=O)Cc2cccs2)C(=O)N2C(C(=O)O)=C(COC(N)=O)CS[C@@H]21 [Cefoxitin] | 2.22 | 12.73 | 18.39 | 9.1638 | k-value (slope of the dose-internal concentration linear regression) (listed as cefoxitin): > 5
12 | CO/N=C(\C(=O)N[C@@H]1C(=O)N2C(C(=O)[O-])=C(C[n+]3cccc4c3CCC4)CS[C@H]12)c1csc(N)n1 [Cefpirome] | 0.21 | 0.86 | 1.67 | < 5 | –
13 | CC1=C(C(=O)O)N2C(=O)[C@@H](NC(=O)[C@H](N)C3=CCC=CC3)[C@H]2SC1 [Cefradine] | 3.15 | 8.93 | 19.89 | 9.8110 | k-value (slope of the dose-internal concentration linear regression) (listed as cefradine): > 5
14 | CC(C)(O/N=C(\C(=O)N[C@@H]1C(=O)N2C(C(=O)[O-])=C(C[n+]3ccccc3)CS[C@H]12)c1csc(N)n1)C(=O)O [Ceftazidime] | 0.00 | 2.45 | 5.47 | 3.1702 | k-value (slope of the dose-internal concentration linear regression) (listed as ceftazidime): < 5
15 | O=C(Cn1cnnn1)N[C@@H]1C(=O)N2C(C(=O)O)=C(CSc3nncs3)CS[C@H]12 [Ceftezole] | 3.95 | 7.08 | 12.96 | 5.2798 | k-value (slope of the dose-internal concentration linear regression) (listed as ceftezole): > 5
16 | CO/N=C(\C(=O)N[C@@H]1C(=O)N2C(C(=O)O)=CCS[C@H]12)c1csc(N)n1 [Ceftizoxime] | 1.17 | 3.70 | 13.15 | 7.1156 | k-value (slope of the dose-internal concentration linear regression) (listed as ceftizoxime): > 5
17 | CO/N=C(\C(=O)N[C@@H]1C(=O)N2C(C(=O)O)=C(COC(N)=O)CS[C@H]12)c1ccco1 [Cefuroxime] | 0.68 | 1.55 | 4.66 | 2.3643 | k-value (slope of the dose-internal concentration linear regression) (listed as cefuroxime): < 5
18 | CO[C@@]1(NC(=O)CSC(F)F)C(=O)N2C(C(=O)O)=C(CSc3nnnn3CCO)CO[C@@H]21 [Flomoxef] | 1.07 | 8.30 | 11.54 | 5.9111 | k-value (slope of the dose-internal concentration linear regression) (listed as flomoxef): > 5
